Source: patent US20200392150A1, “Diaryl-B-Lactam Compound and Preparation Method and Pharmaceutical Use Thereof” (Fudan University, priority 2016, published 2020)

Legend:
Type in all cases: cell-based, human
[1] = test system: tubulin in Hela cells; assay: Immunoblotting analysis of polymerized/depolymerized tubulin; conditions: 6 h
Experimental: After being treated with diluent (0.2% DMSO), tested compound, CA-4 or PTX for 6 h, Hela cells were lysed with microtubulestabilizing buffer, containing 100 mM PIPES, pH 6.8, 1 mM MgCl2, 2 mM EGTA, 0.5% NP-40, 2 M glycerol, 5 μM PTX and protease inhibitors cocktail (Roche), and the lysate was centrifuged at 15,000 rpm for 15 min. Supernatant containing depolymerized tubulin was carefully collected, whereas pellet (polymerized tubulin) was further dissolved in SDS-lysis buffer (Beyotime, China). Equal amounts of supernatant and dissolved pellet were subjected to immunoblotting analysis as described above using atubulin antibody (Proteintech).

[2] = test system: tubulin in SKOV-3 cells; assay: Immunofluorescent analysis of tubulin morphology; conditions: 24 h
Experimental: After treatment with diluent (0.2% DMSO) or tested compounds at indicated concentrations for 24 h, SKOV-3 cells were fixed with methanol, permeabilized with 0.1% Triton X-100 in PBS and blocked by goat serum. Then the cells were incubated with a-tubulin antibody at 4° C. overnight, followed by incubation with Alexa 488 labeled secondary antibody (Jackson ImmunoResearch) at RT for 1 h. After being stained with DAPI, cells were examined and photographed with a Leica SP5 co-focal fluorescence microscope.

[3] = test system: SKOV3; assay: In vitro cell growth inhibition assay (MTT); conditions: SK-OV-3; SKOV-3 human ovarian cancer cell line, 48 h, MTT; read-out: IC50 SKOV3
Procedure, shortened: (§1)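 Following overnight adherence of 5000 cells per well, compounds or 0.2% DMSO were applied for 48 h. Medium was then swapped for 0.5 mg/mL MTT medium (4 h, 37° C), crystals dissolved in DMSO, and plates read at 540 nm.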

[4] = test system: MDA-MB-231; assay: In vitro cell growth inhibition assay (MTT); conditions: MDA-MB-231 human breast cancer cell line, 48 h, MTT; read-out: IC50 MDA-MB-231
Procedure, shortened: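 5000 cells/well, overnight attachment; compounds 48 h (vehicle 0.2% DMSO); MTT 0.5 mg/mL, 4 h, 37° C; formazan in DMSO; A540. IC50 from growth inhibition rates.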

[5] = test system: Hela; assay: In vitro cell growth inhibition assay (MTT); conditions: Hela human cervical cancer cell line, 48 h, MTT; read-out: IC50 Hela
Procedure, shortened: as §1

[6] = test system: A2780; assay: In vitro cell growth inhibition assay (MTT); conditions: A2780 human ovarian cancer cell line, 48 h, MTT; read-out: IC50 A2780
Procedure, shortened: as §1

SMILES: C=C1C(=O)N(c2cc(OC)c(OC)c(OC)c2)[C@H]1c1ccc(OC)c(O)c1 [Compound 1, (S)-4-(3-hydroxy-4-methoxyphenyl)-3-methylene-1-(3,4,5-trimethoxyphenyl)azetidin-2-one]
- polymerized tubulin (immunoblotting) [1]: significantly inhibit tubulin aggregation
- tubulin assembly (immunofluorescence) [2]: significantly inhibit tubulin aggregation
- IC50 [3]: 128 nM
- IC50 [4]: 234 nM
- IC50 [5]: 186 nM
- IC50 [6]: 143 nM
